We go through 14 compounds from patent US7932284B2, “Indole sulfonamide modulators of progesterone receptors” (Eli Lilly and Company, priority 2006, dated 2011).

The target of experiment [1] is T1, human GR (glucocorticoid receptor) (Homo sapiens, UniProt P04150).
T1 construct: expressed in transfected cells; host or cells: HEK293
T1 sequence (P04150 1-777): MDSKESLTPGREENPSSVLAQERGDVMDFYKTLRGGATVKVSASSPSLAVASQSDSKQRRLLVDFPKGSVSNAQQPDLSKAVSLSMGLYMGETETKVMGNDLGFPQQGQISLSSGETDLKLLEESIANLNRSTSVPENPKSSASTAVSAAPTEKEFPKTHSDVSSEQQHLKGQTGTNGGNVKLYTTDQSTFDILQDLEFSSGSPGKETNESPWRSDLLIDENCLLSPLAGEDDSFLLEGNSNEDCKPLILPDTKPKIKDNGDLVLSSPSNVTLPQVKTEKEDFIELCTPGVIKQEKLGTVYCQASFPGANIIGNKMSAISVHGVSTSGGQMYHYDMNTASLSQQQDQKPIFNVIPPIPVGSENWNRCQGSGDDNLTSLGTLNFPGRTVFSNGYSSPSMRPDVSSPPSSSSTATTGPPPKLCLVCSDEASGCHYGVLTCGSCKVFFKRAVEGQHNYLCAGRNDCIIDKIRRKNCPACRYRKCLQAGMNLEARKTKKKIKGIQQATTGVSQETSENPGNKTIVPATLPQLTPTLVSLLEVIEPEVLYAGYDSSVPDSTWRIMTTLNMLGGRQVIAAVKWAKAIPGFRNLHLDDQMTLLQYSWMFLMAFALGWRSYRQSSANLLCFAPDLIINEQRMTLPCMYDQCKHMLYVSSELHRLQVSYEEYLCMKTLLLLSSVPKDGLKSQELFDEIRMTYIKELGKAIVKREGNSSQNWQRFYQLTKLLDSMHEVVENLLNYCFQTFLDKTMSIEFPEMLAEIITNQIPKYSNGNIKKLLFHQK
Description: GR competition binding assay (HEK293 cell lysate). The settings on record: 0.3 nM 3H-dexamethasone, 293-GR lysate. Here is the method: (§1) Cell lysates from HEK293 cells overexpressing human GR (glucocorticoid receptor), AR (androgen receptor), MR (mineralocorticoid receptor) or PR (progesterone receptor) are used for competition binding assays to determine Ki values for compounds of interest. Briefly, competition binding assays are run in a buffer containing 20 mM HEPES, pH 7.6, 0.2 mM EDTA, 75 mM NaCl, 1.5 mM MgCl2, 20% glycerol, 20 mM sodium molybdate, 0.2 mM DTT, 20 ug/ml aprotinin, and 20 ug/ml leupeptin, using either 0.3 nM ^3H-dexamethasone for GR binding, 0.36 nM ^3H-methyltrienolone for AR binding, 0.25 nM ^3H-aldosterone for MR binding, or 0.29 nM ^3H-methyltrienolone for PR binding, and either 20 ug 293-GR lysate, 22 ug 293-AR lysate, 20 ug 293-MR lysate or 40 ug 293-PR lysate per well. Competing compounds are added at various concentrations in half-log increments. Non-specific binding is determined in the presence of 500 nM dexamethasone for GR binding, 500 nM aldosterone for MR binding, or 500 nM methyltrienolone for AR and PR binding. The binding reaction (140 μl) is incubated overnight at 4° C., then 70 μl of cold charcoal-dextran buffer (containing per 50 ml of assay buffer, 0.75 g of charcoal and 0.25 g of dextran) is added to each reaction. Plates are mixed 8 minutes on an orbital shaker at 4° C. Plates are then centrifuged at 3,000 rpm at 4° C. for 10 minutes. An aliquot of 120 μl of the mixture is transferred to another 96-well plate and 175 μl of Wallac Optiphase “Hisafe 3” scintillation fluid is added to each well. Plates are sealed and shaken vigorously on an orbital shaker. After an incubation of 2 hrs, plates are read in a Wallac Microbeta counter. […] The Kd for ^3H-dexamethasone for GR binding, ^3H-methyltrienolone for AR binding, ^3H-aldosterone for MR binding, or ^3H-methyltrienolone for PR binding, is determined by saturation binding. The IC50 values for compounds are converted to Ki using Cheng-Prusoff equation and the Kd determined by saturation binding assay.

Experiment [2] has as its target T2, human AR (androgen receptor) (Homo sapiens, UniProt P10275).
T2 construct: expressed in transfected cells; host or cells: HEK293
T2 sequence (P10275 1-920): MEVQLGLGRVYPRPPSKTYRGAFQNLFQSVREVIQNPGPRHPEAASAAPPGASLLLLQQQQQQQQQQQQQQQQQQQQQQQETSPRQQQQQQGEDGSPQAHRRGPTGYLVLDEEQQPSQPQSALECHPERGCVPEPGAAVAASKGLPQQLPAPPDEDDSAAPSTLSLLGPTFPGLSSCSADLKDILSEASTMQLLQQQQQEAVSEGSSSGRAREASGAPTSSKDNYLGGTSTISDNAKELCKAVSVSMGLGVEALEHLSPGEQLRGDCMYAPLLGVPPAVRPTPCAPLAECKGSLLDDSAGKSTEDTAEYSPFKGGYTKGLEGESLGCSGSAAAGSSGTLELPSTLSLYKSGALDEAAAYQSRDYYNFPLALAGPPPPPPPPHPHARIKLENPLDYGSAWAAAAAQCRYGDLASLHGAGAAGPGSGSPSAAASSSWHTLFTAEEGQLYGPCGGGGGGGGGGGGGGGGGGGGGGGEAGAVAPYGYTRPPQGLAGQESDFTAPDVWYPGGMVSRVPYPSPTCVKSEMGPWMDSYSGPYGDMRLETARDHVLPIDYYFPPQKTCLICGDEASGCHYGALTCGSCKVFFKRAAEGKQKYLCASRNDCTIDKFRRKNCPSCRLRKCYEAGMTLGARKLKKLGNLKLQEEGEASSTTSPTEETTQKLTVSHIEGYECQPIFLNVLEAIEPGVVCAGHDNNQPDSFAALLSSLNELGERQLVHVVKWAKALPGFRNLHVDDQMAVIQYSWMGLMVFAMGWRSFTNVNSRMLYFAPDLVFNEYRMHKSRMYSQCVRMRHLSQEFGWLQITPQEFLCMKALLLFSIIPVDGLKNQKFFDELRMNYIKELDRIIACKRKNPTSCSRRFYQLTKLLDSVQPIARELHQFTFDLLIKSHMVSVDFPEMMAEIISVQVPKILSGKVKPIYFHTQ
Description: AR competition binding assay (HEK293 cell lysate). The following applies: 0.36 nM 3H-methyltrienolone, 293-AR lysate. The procedure:
as §1

The Ki is a measure of affinity in units of concentration, obtained from inhibition or displacement. Read a low Ki as a stronger hold on the target.

In the case of `Cn1cc(-c2ccc(C#N)cc2)c2ccc(NS(C)(=O)=O)cc21` [Example 25, N-[3-(4-Cyano-phenyl)-1-methyl-1H-indol-6-yl]-methanesulfonamide], the inhibition constant (Ki) in experiment [1] and in experiment [2] was > 1 µM each time.
On to `CC(C)n1cc(-c2ccc(C#N)cc2)c2ccc(NS(C)(=O)=O)cc21` [Example 28, N-[3-(4-Cyano-phenyl)-1-isopropyl-1H-indol-6-yl]-methanesulfonamide], for which the Ki in experiment [1] and in experiment [2] was > 1 µM in each case.
For `CC(C)Cn1cc(-c2ccc(C#N)cc2)c2ccc(NS(C)(=O)=O)cc21` [Example 29, N-[3-(4-Cyano-phenyl)-1-isobutyl-1H-indol-6-yl]-methanesulfonamide], the inhibitory constant (Ki) in experiment [1] and in experiment [2] was 0.1 to 0.5 µM in each case.
As for `Cn1cc(-c2ccc([N+](=O)[O-])cc2)c2ccc(NS(C)(=O)=O)cc21` [Example 30, N-[1-Methyl-3-(4-nitro-phenyl)-1H-indol-6-yl]-methanesulfonamide], the Ki in experiment [1] and in experiment [2] was > 1 µM throughout.
As for `Cn1cc(-c2ccc(C#N)cc2)c2ccc(NS(=O)(=O)c3cccs3)cc21` [Example 32, Thiophene-2-sulfonic acid [3-(4-cyano-phenyl)-1-methyl-1H-indol-6-yl]-amide], the Ki in experiment [1] and in experiment [2] was > 1 µM each time.
In the case of `CC(C)n1cc(-c2ccc(Cl)cc2)c2ccc(NS(C)(=O)=O)cc21` [Example 36, N-[3-(4-Chloro-phenyl)-1-isopropyl-1H-indol-6-yl]-methanesulfonamide], the values for the inhibition constant Ki in experiment [1] and in experiment [2] were > 1 µM and 0.5 to 1 µM, respectively.
For `CC(C)n1cc(-c2ccc(C#N)c(F)c2)c2ccc(NS(C)(=O)=O)cc21` [Example 38, N-[3-(4-Cyano-3-fluoro-phenyl)-1-isopropyl-1H-indol-6-yl]-methanesulfonamide], the Ki in experiment [1] is > 1 µM; in experiment [2] it was 0.5 to 1 µM.
For `CC(C)n1cc(-c2ccc(C#N)s2)c2ccc(NS(C)(=O)=O)cc21` [Example 43, N-[3-(5-Cyano-thiophen-2-yl)-1-isopropyl-1H-indol-6-yl]-methanesulfonamide] the same measures were > 1 µM and 0.1 to 0.5 µM.
For `CS(=O)(=O)Nc1ccc2c(-c3ccc(C#N)cc3)cn(C3CCCC3)c2c1` [Example 63, N-[3-(4-Cyano-phenyl)-1-cyclopentyl-1H-indol-6-yl]-methanesulfonamide] the same measures were > 1 µM and > 1 µM.
The matching figures for `CS(=O)(=O)Nc1ccc2c(-c3ccc(C#N)cc3)cn(Cc3ccccc3)c2c1` [Example 72, N-[1-Benzyl-3-(4-cyano-phenyl)-1H-indol-6-yl]-methanesulfonamide]: 0.05 to 0.1 µM and > 1 µM.
For `CCOC(=O)c1ccc(-c2cn(C(C)C)c3cc(NS(C)(=O)=O)ccc23)cc1` [Example 74, 4-(1-Isopropyl-6-methanesulfonylamino-1H-indol-3-yl)-benzoic acid ethyl ester], the Ki in experiment [1] and in experiment [2] was > 1 µM throughout.
For the compound `CS(=O)(=O)Nc1ccc2c(-c3ccc(C#N)cc3)cn(CC3CCCCC3)c2c1` [Example 77, N-[3-(4-Cyano-phenyl)-1-cyclohexylmethyl-1H-indol-6-yl]-methanesulfonamide], the Ki in experiment [1] and in experiment [2] was 0.1 to 0.5 µM in each case.
Regarding `CC(C)n1cc(-c2ccc(C#N)n2C)c2ccc(NS(C)(=O)=O)cc21` [Example 78, N-[3-(5-Cyano-1-methyl-1H-pyrrol-2-yl)-1-isopropyl-1H-indol-6-yl]-methanesulfonamide], the Ki in experiment [1] is 0.1 to 0.5 µM; in experiment [2] it was 0.05 to 0.1 µM.
Turning to `CSc1ccc(-c2cn(C(C)C)c3cc(NS(C)(=O)=O)ccc23)cc1` [Example 83, N-[1-Isopropyl-3-(4-methylsulfanyl-phenyl)-1H-indol-6-yl]-methanesulfonamide], the inhibition constant Ki in experiment [1] and in experiment [2] was > 1 µM each time.
